From ChEMBL document CHEMBL5329160, “Design, synthesis, and mechanistic study of 2-piperazineone-bearing peptidomimetics as novel HIV capsid modulators” (RSC Med Chem, 2023)

Legend:
[1] = Selectivity index, ratio of CC50 for human MT4 cells to EC50 for HIV-2 ROD infected in human MT4 cells; format: toxicity, cell-based; settings: read-out: Ratio CC50/EC50
[2] = Selectivity index, ratio of CC50 for human MT4 cells to EC50 for HIV-1 IIIB infected in human MT4 cells; format: toxicity, cell-based; settings: read-out: Ratio CC50/EC50
[3] = test system: Human immunodeficiency virus 1; experiment: Antiviral activity against HIV-1 IIIB infected in MT4 cells assessed as protection against virus induced cytotoxicity incubated for 5 days by MTT assay; format: functional, organism-based; settings: Human immunodeficiency virus 1, IIIB, MT4, 120 h
[4] = Cytotoxicity against human MT4 cells assessed as reduction in cell viability after 5 days by MTT assay; format: toxicity, cell-based; settings: time 5 day
[5] = test system: Human immunodeficiency virus 2; experiment: Antiviral activity against HIV-2 ROD infected in MT4 cells assessed as protection against virus induced cytotoxicity and measured after 5 days by MTT spectrophotometric assay; format: functional, organism-based; settings: Human immunodeficiency virus 2, ROD, MT4, 120 h

## COc1ccc(N(C)C(=O)[C@H](Cc2cc(F)cc(F)c2)NC(=O)CN2CCN(C(=O)c3cccc(C(F)(F)F)c3)CC2=O)cc1
[1]
  selectivity ratio: < 1
[2]
  selectivity ratio: < 1
[3]
  EC50: > 3.7 µM
[4]
  CC50 at 120 h: 3.7 µM
[5]
  EC50: > 3.7 µM

## COc1ccc(N(C)C(=O)[C@H](Cc2ccccc2)NC(=O)CN2CCN(C(=O)c3ccc(N)cc3)CC2=O)cc1
[1]
  selectivity ratio: > 8.2
[2]
  selectivity ratio: > 11
[3]
  EC50: 21 µM
[4]
  CC50 at 120 h: > 230 µM
[5]
  EC50: 28 µM

## COc1ccc(N(C)C(=O)[C@H](Cc2ccccc2)NC(=O)CN2CCN(C(=O)c3ccccc3C(F)(F)F)CC2=O)cc1
[1]
  selectivity ratio: 45
[2]
  selectivity ratio: 6.2
[3]
  EC50: 21 µM
[4]
  CC50 at 120 h: 130 µM
[5]
  EC50: 2.9 µM

## COc1ccc(N(C)C(=O)[C@H](Cc2cc(F)cc(F)c2)NC(=O)CN2CCN(C(=O)c3ccc(F)cc3)CC2=O)cc1
[1]
  selectivity ratio: 3.7
[2]
  selectivity ratio: 3.8
[3]
  EC50: 20 µM
[4]
  CC50 at 120 h: 77 µM
[5]
  EC50: 21 µM

## COc1ccc(N(C)C(=O)[C@H](Cc2ccccc2)NC(=O)CN2CCN(C(=O)c3ccc(C)cc3)CC2=O)cc1
[1]
  selectivity ratio: 7
[2]
  selectivity ratio: 1.9
[3]
  EC50: 33 µM
[4]
  CC50 at 120 h: 64 µM
[5]
  EC50: 9.2 µM

## COc1ccc(N(C)C(=O)[C@H](Cc2ccccc2)NC(=O)CN2CCN(C(=O)c3ccc(Cl)cc3)CC2=O)cc1
[1]
  selectivity ratio: < 1
[2]
  selectivity ratio: < 1
[3]
  EC50: > 8.9 µM
[4]
  CC50 at 120 h: 9 µM
[5]
  EC50: > 9 µM

## COc1ccc(N(C)C(=O)[C@H](Cc2cc(F)cc(F)c2)NC(=O)CN2CCN(C(=O)c3cccc(N)c3)CC2=O)cc1
[1]
  selectivity ratio: > 14
[2]
  selectivity ratio: > 10
[3]
  EC50: 23 µM
[4]
  CC50 at 120 h: > 220 µM
[5]
  EC50: 16 µM

## COc1ccc(C(=O)N2CCN(CC(=O)N[C@@H](Cc3cc(F)cc(F)c3)C(=O)N(C)c3ccc(OC)cc3)C(=O)C2)cc1
[1]
  selectivity ratio: 3.1
[2]
  selectivity ratio: 4
[3]
  EC50: 24 µM
[4]
  CC50 at 120 h: 96 µM
[5]
  EC50: 31 µM

## COc1ccc(N(C)C(=O)[C@H](Cc2ccccc2)NC(=O)CN2CCN(C(=O)c3ccc(F)cc3)CC2=O)cc1
[1]
  selectivity ratio: 7
[2]
  selectivity ratio: < 1
[3]
  EC50: > 77 µM
[4]
  CC50 at 120 h: 77 µM
[5]
  EC50: 11 µM

## COc1ccc(N(C)C(=O)[C@H](Cc2ccccc2)NC(=O)CN2CCN(C(=O)c3cccc(N)c3)CC2=O)cc1
[1]
  selectivity ratio: > 8.5
[2]
  selectivity ratio: ≥ 1
[3]
  EC50: ≥ 200 µM
[4]
  CC50 at 120 h: > 230 µM
[5]
  EC50: 27 µM

## COc1ccc(N(C)C(=O)[C@H](Cc2cc(F)cc(F)c2)NC(=O)CN2CCN(C(=O)c3ccc(Cl)cc3)CC2=O)cc1
[1]
  selectivity ratio: < 1
[2]
  selectivity ratio: < 1
[3]
  EC50: > 19 µM
[4]
  CC50 at 120 h: 19 µM
[5]
  EC50: > 19 µM

## COc1ccc(N(C)C(=O)[C@H](Cc2cc(F)cc(F)c2)NC(=O)CN2CCN(C(=O)c3ccccc3N)CC2=O)cc1
[1]
  selectivity ratio: 19
[2]
  selectivity ratio: 8.9
[3]
  EC50: 18 µM
[4]
  CC50 at 120 h: 160 µM
[5]
  EC50: 8.6 µM

## COc1ccc(N(C)C(=O)[C@H](Cc2cc(F)cc(F)c2)NC(=O)CN2CCN(C(=O)c3ccc(Br)cc3)CC2=O)cc1
[1]
  selectivity ratio: < 1
[2]
  selectivity ratio: < 1
[3]
  EC50: > 19 µM
[4]
  CC50 at 120 h: 19 µM
[5]
  EC50: > 19 µM

## COc1ccc(N(C)C(=O)[C@H](Cc2ccccc2)NC(=O)CN2CCN(C(=O)c3cccc(C(F)(F)F)c3)CC2=O)cc1
[1]
  selectivity ratio: < 1
[2]
  selectivity ratio: < 1
[3]
  EC50: > 6.7 µM
[4]
  CC50 at 120 h: 6.7 µM
[5]
  EC50: > 6.7 µM

## COc1ccc(N(C)C(=O)[C@H](Cc2ccccc2)NC(=O)CN2CCN(C(=O)c3ccc([N+](=O)[O-])cc3)CC2=O)cc1
[1]
  selectivity ratio: < 1
[2]
  selectivity ratio: < 1
[3]
  EC50: > 16 µM
[4]
  CC50 at 120 h: 16 µM
[5]
  EC50: > 16 µM

## COc1ccc(C(=O)N2CCN(CC(=O)N[C@@H](Cc3ccccc3)C(=O)N(C)c3ccc(OC)cc3)C(=O)C2)cc1
[1]
  selectivity ratio: 5.2
[2]
  selectivity ratio: 4.2
[3]
  EC50: 26 µM
[4]
  CC50 at 120 h: 110 µM
[5]
  EC50: 21 µM

## COc1ccc(N(C)C(=O)[C@H](Cc2ccccc2)NC(=O)CN2CCN(C(=O)c3cccc(F)c3)CC2=O)cc1
[1]
  selectivity ratio: > 50
[2]
  selectivity ratio: > 10
[3]
  EC50: 23 µM
[4]
  CC50 at 120 h: > 230 µM
[5]
  EC50: 4.6 µM

## COc1ccc(N(C)C(=O)[C@H](Cc2ccccc2)NC(=O)CN2CCN(C(=O)c3ccc(Br)cc3)CC2=O)cc1
[1]
  selectivity ratio: < 1
[2]
  selectivity ratio: < 1
[3]
  EC50: > 11 µM
[4]
  CC50 at 120 h: 11 µM
[5]
  EC50: > 11 µM

## COc1ccc(N(C)C(=O)[C@H](Cc2cc(F)cc(F)c2)NC(=O)CN2CCN(C(=O)c3ccccc3F)CC2=O)cc1
[1]
  selectivity ratio: 26
[2]
  selectivity ratio: 6.4
[3]
  EC50: 22 µM
[4]
  CC50 at 120 h: 140 µM
[5]
  EC50: 5.3 µM

## COc1ccc(N(C)C(=O)[C@H](Cc2cc(F)cc(F)c2)NC(=O)CN2CCN(C(=O)c3cccc(F)c3)CC2=O)cc1
[1]
  selectivity ratio: 7.6
[2]
  selectivity ratio: 4
[3]
  EC50: 25 µM
[4]
  CC50 at 120 h: 99 µM
[5]
  EC50: 13 µM

## COC(=O)c1ccc(C(=O)N2CCN(CC(=O)N[C@@H](Cc3cc(F)cc(F)c3)C(=O)N(C)c3ccc(OC)cc3)C(=O)C2)cc1
[1]
  selectivity ratio: 4.6
[2]
  selectivity ratio: 6.7
[3]
  EC50: 18 µM
[4]
  CC50 at 120 h: 120 µM
[5]
  EC50: 26 µM

## COc1ccc(N(C)C(=O)[C@H](Cc2cc(F)cc(F)c2)NC(=O)CN2CCN(C(=O)c3ccc(N)cc3)CC2=O)cc1
[1]
  selectivity ratio: > 6.9
[2]
  selectivity ratio: > 12
[3]
  EC50: 18 µM
[4]
  CC50 at 120 h: > 220 µM
[5]
  EC50: 32 µM

## COC(=O)c1ccc(C(=O)N2CCN(CC(=O)N[C@@H](Cc3ccccc3)C(=O)N(C)c3ccc(OC)cc3)C(=O)C2)cc1
[1]
  selectivity ratio: 8.3
[2]
  selectivity ratio: < 1
[3]
  EC50: > 190 µM
[4]
  CC50 at 120 h: 200 µM
[5]
  EC50: 24 µM

## COc1ccc(N(C)C(=O)[C@H](Cc2ccccc2)NC(=O)CN2CCN(C(=O)c3ccccc3N)CC2=O)cc1
[1]
  selectivity ratio: 30
[2]
  selectivity ratio: 7
[3]
  EC50: 23 µM
[4]
  CC50 at 120 h: 160 µM
[5]
  EC50: 5.4 µM

## COc1ccc(N(C)C(=O)[C@H](Cc2ccccc2)NC(=O)CN2CCN(C(=O)c3ccccc3F)CC2=O)cc1
[1]
  selectivity ratio: 18
[2]
  selectivity ratio: 5.8
[3]
  EC50: 24 µM
[4]
  CC50 at 120 h: 140 µM
[5]
  EC50: 7.8 µM

## COc1ccc(N(C)C(=O)[C@H](Cc2cc(F)cc(F)c2)NC(=O)CN2CCN(C(=O)c3ccc(C)cc3)CC2=O)cc1
[1]
  selectivity ratio: 2.1
[2]
  selectivity ratio: 2.3
[3]
  EC50: 32 µM
[4]
  CC50 at 120 h: 74 µM
[5]
  EC50: 35 µM

## COc1ccc(N(C)C(=O)[C@H](Cc2ccccc2)NC(=O)CN2CCN(C(=O)c3ccccc3)CC2=O)cc1
[1]
  selectivity ratio: > 67
[2]
  selectivity ratio: > 8.6
[3]
  EC50: 28 µM
[4]
  CC50 at 120 h: > 240 µM
[5]
  EC50: 3.6 µM

## COc1ccc(N(C)C(=O)[C@H](Cc2cc(F)cc(F)c2)NC(=O)CN2CCN(C(=O)c3ccccc3)CC2=O)cc1
[2]
  selectivity ratio: 4.4
[3]
  EC50: 25 µM
[4]
  CC50 at 120 h: 110 µM
[5]
  EC50: 12 µM

## COc1ccc(N(C)C(=O)[C@H](Cc2ccccc2)NC(=O)CN2CCN(C(=O)c3ccc(C(F)(F)F)cc3)CC2=O)cc1
[3]
  EC50: ≥ 37 µM
[4]
  CC50 at 120 h: 42 µM
[5]
  EC50: ≥ 41 µM

## COc1ccc(N(C)C(=O)[C@H](Cc2ccccc2)NC(=O)CN2CCN(C(=O)c3cccc([N+](=O)[O-])c3)CC2=O)cc1
[1]
  selectivity ratio: < 1
[2]
  selectivity ratio: < 1
[3]
  EC50: > 24 µM
[4]
  CC50 at 120 h: 24 µM
[5]
  EC50: > 24 µM

## COc1ccc(N(C)C(=O)[C@H](Cc2cc(F)cc(F)c2)NC(=O)CN2CCN(C(=O)c3cccc([N+](=O)[O-])c3)CC2=O)cc1
[1]
  selectivity ratio: < 1
[2]
  selectivity ratio: 1.4
[3]
  EC50: 34 µM
[4]
  CC50 at 120 h: 47 µM
[5]
  EC50: > 47 µM
